The values that follow come from US20100016366A1, “Novel Compounds Active as Muscarinic Receptor Antagonists” (priority 2008, published 2010).

Test [1] addresses T1, human muscarinic M3 receptor (Homo sapiens, UniProt P20309).
T1 construct: expressed in transfected cells; host or cells: CHO (CHO-K1) cells
As to the kind of experiment: Cell based potency assessment, hM3 β-lactamase assay (CHO cell β-lactamase). The conditions noted are these: CHO cells recombinantly expressing human M3, NFAT-β-lactamase reporter; inhibition of 80 nM carbamyl choline signal, 4 h; IC50 converted by Cheng-Prusoff. Here is the method: Cell BASED POTENCY ASSESSMENT at the Human Recombinant M3 Muscarinic Receptor
M3 potency was determined in CHO-K1 cells transfected with the NFAT-Betalactamase gene. CHO (Chinese Hamster Ovary) cells recombinantly expressing the human muscarinic M3 receptor were transfected with the NFAT_β-Lac_Zeo plasmid. Cells were grown in DMEM with Glutamax-1, supplemented with 25 mM HEPES (Life Technologies 32430-027), containing 10% FCS (Foetal Calf Serum; Sigma F-7524), […] Sodium pyruvate (Sigma S-8636), NEAA (non-Essential Amino Acids; Invitrogen 11140-035) and 200 μg/ml Zeocin (Invitrogen R250-01).
hM3 β-Lactamase Assay Protocol
Cells were harvested for assay when they reached 80-90% confluency using enzyme free cell Dissociation Solution (Life technologies 13151-014) incubated with the cells for 5 min at 37° C. in an atmosphere containing 5% CO2. Detached cells were collected in warmed growth media and centrifuged at 2000 rpm for 10 min, washed in PBS (Phosphate Buffered Saline; Life Technologies 14190-094) and centrifuged again as just described. The cells were re-suspended at 2×10^5 cells/ml in growth medium (composition as described above). 20 μl of this cell suspension was added to each well of a 384 well black clear bottomed plate (Greiner Bio One 781091-PFI). The assay buffer used was PBS supplemented with 0.05% Pluronic F-127 (Sigma 9003-11-6) and 2.5% DMSO. Muscarinic M3 receptor signalling was stimulated using 80 nM carbamyl choline (Aldrich N240-9) incubated with the cells for 4 h at 37° C./5% CO2 and monitored at the end of the incubation period using a Tecan SpectraFluor+plate reader (λ−excitation 405 nm, emission 450 nm and 503 nm). M3 receptor antagonists under test were added to the assay at the beginning of the 4 h incubation period and compound activity measured as the concentration dependent inhibition of the carbamyl choline induced signal. Inhibition curves were plotted and IC50 values generated using a 4-parameter sigmoid fit and converted to Ki values using the Cheng-Prusoff correction and the KD value for carbamyl choline in the assay.

The target in test [2] is T1, human muscarinic M3 receptor. As to the kind of experiment: hM3 competition binding assay (3H-NMS, CHO cell membranes). The settings on record: CHO cell membranes expressing human M3; 3H-NMS at 5×KD, 24 hr at RT; IC50 corrected by Cheng-Prussoff. Here is the method: Binding Affinity Assessment at the Human Recombinant M3 Muscarinic Receptor
Cell Pellets from CHO (Chinese Hamster Ovary) cells recombinantly expressing the human muscarinic M3 receptor were homogenised in 20 mM HEPES (pH7.4) and centrifuged at 48000×g for 20 min at 4° C. The pellet was re-suspended in buffer and the homogenisation and centrifugation steps repeated. The resulting pellet was re-suspended in 1 ml buffer per 1 ml original packed cell volume and the homogenisation step repeated. Protein estimation was carried out on the suspension and 1 ml aliquots of ˜1 mg/ml frozen at −80° C.
hM3 Competition Binding Assay Protocol
Membranes (5 µg/well) were incubated with ^3H-NMS (at a concentration 5×KD) plus/minus test compound for 24 hr at RT (room temperature) in a 1 ml polystyrene 96-well deep well block. The final assay volume was 200 µl, comprising of: 20 µl plus/minus test compound; 20 µl ^3H-NMS (Perkin Elmer NEN 636) and 160 µl membrane solution. Total Binding was defined with 0.1% DMSO; Non-Specific Binding was defined with 1 µM Atropine. Assay buffer was 20 mM Hepes (pH 7.4).
Once all assay components were added, plates were covered and incubated at room temperature for 24 hrs with shaking. The assay was terminated by rapidly filtering through GF/B Unifilter plates pre-soaked with 0.5% polyethylenimine, using a Packard filtermate harvester, the filter plate was then washed with 3×1 ml 4° C. assay buffer. The filter plates were dried at 45° C. for 1 hour. The bottoms of the filter plates were sealed and 50 µl/well of Microscint ‘0’ added, the top of the plates were sealed with a Topseal. Following 90 mins, the plates were read on an NXT Topcount (1 minute read time per well).
The resulting data was expressed as a percentage of the specific binding (Specific binding=Total binding−Non-Specific Binding). % specific binding versus test compound concentration was plotted to determine an IC50 from a sigmoid curve using an in-house data analysis programme. IC50 values corrected to Ki values by applying the Cheng-Prussoff equation: […]
where IC50 is the concentration of unlabelled drug which inhibits by 50% the specific radioligand binding. [L] is the free radioligand concentrations and KD and Ki are the equilibrium dissociation constants of the radioligand and unlabelled drug respectively.

T1 sequence (P20309 whole entry): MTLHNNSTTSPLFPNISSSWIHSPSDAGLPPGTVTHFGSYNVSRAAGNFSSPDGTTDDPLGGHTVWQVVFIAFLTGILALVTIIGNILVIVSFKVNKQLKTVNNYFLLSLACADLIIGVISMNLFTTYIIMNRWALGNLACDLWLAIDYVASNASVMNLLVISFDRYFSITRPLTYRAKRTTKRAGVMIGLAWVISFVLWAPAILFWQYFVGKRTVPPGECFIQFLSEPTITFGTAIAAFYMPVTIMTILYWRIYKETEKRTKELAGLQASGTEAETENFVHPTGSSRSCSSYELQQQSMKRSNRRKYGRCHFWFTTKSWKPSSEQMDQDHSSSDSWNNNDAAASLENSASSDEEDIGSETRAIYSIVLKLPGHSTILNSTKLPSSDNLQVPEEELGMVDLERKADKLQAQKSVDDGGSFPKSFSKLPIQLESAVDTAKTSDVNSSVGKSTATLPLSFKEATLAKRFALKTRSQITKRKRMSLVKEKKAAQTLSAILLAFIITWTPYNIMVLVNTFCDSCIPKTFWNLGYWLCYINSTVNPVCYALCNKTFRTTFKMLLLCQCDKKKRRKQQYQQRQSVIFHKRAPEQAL

Regarding `CN(CCCCCCCCCN1CCC(OC(=O)Nc2ccccc2-c2ccccc2)CC1)C(=O)c1ccc(O)c(Cl)c1` [Example 17, Biphenyl-2-yl-carbamic acid 1-{9-[(3-chloro-4-hydroxy-benzoyl)-methyl-amino]-nonyl}-piperidin-4-yl ester], the figures for the inhibitory constant (Ki) in test [1] and in test [2] were 0.25 nM and 2.15 nM, respectively.
With `CN(CCCCCCCCCN1CCC(OC(=O)Nc2ccccc2-c2ccccc2)CC1)C(=O)Cc1ccc(O)c(F)c1` [Example 18, Biphenyl-2-yl-carbamic acid 1-(9-{[2-(3-fluoro-4-hydroxy-phenyl)-acetyl]-methyl-amino}-nonyl)-piperidin-4-yl ester], the Ki (usually a measure of affinity in units of concentration, obtained from inhibition or displacement) in test [1] was determined as 0.353 nM; in test [2], 2.29 nM.
Regarding `O=C(Nc1ccccc1-c1ccccc1)OC1CCN(CCCCCCCCCNC(=O)c2ccc(Cl)c(O)c2)CC1` [Example 19, Biphenyl-2-yl-carbamic acid 1-[9-(4-chloro-3-hydroxy-benzoylamino)-nonyl]-piperidin-4-yl ester], the inhibition constant Ki worked out at 1.32 nM in test [1] and 1.45 nM in test [2].
With `O=C(Nc1ccccc1-c1ccccc1)OC1CCN(CCCCCCCCCNC(=O)c2ccc(O)cc2F)CC1` [Example 20, Biphenyl-2-yl-carbamic acid 1-[9-(2-fluoro-4-hydroxy-benzoylamino)-nonyl]-piperidin-4-yl ester], the Ki was 0.918 nM in test [1] and 1.95 nM in test [2].
Consider `O=C(Nc1ccccc1-c1ccccc1)OC1CCN(CCCCCCCCCNC(=O)c2ccc(O)cc2Cl)CC1` [Example 21, Biphenyl-2-yl-carbamic acid 1-[9-(2-chloro-4-hydroxy-benzoylamino)-nonyl]-piperidin-4-yl ester], for which the Ki in test [1] worked out at 0.682 nM; in test [2], 1.26 nM.
With `O=C(Nc1ccccc1-c1ccccc1)OC1CCN(CCCCCCCCCNCc2cc(Cl)c(O)c(Cl)c2)CC1` [Example 22, Biphenyl-2-yl-carbamic acid 1-[9-(3,5-dichloro-4-hydroxy-benzylamino)-nonyl]-piperidin-4-yl ester], the inhibitory constant (Ki) in test [1] was found to be 0.149 nM; in test [2], 0.865 nM.
On to `O=C(Nc1ccccc1-c1ccccc1)OC1CCN(CCCCCCCCCNC(=O)c2ccc(O)c(F)c2F)CC1` [Example 23, Biphenyl-2-yl-carbamic acid 1-[9-(2,3-difluoro-4-hydroxy-benzoylamino)-nonyl]-piperidin-4-yl ester], for which the Ki came to 0.276 nM in test [1] and 2.38 nM in test [2].
For `O=C(Nc1ccccc1-c1ccccc1)OC1CCN(CCCCCCCCCNC(=O)c2cc(Cl)c(O)c(Cl)c2)CC1` [Example 25, Biphenyl-2-yl-carbamic acid 1-[9-(4-hydroxy-3,5-dichloro-benzoylamino)-nonyl]-piperidin-4-yl ester], the Ki was 0.854 nM in test [1] and 4.34 nM in test [2].
On to `O=C(Nc1ccccc1-c1ccccc1)OC1CCN(CCCCCCCCCNCc2cc(F)c(O)c(F)c2)CC1` [Example 27, Biphenyl-2-yl-carbamic acid 1-[9-(3,5-difluoro-4-hydroxy-benzylamino)-nonyl]-piperidin-4-yl ester], for which the Ki in test [1] was determined as 0.208 nM; in test [2] it was 1.1 nM.
Regarding `O=C(Nc1ccccc1-c1ccccc1)OC1CCN(CCCCCCCCCNCc2cc(Cl)c(Cl)cc2O)CC1` [Example 28, Biphenyl-2-yl-carbamic acid 1-[9-(2-hydroxy-4,5-dichloro-benzylamino)-nonyl]-piperidin-4-yl ester], the values for the inhibition constant (Ki) in test [1] and in test [2] were 3.59 nM and 3.83 nM, respectively.
Regarding `O=C(Nc1ccccc1-c1ccccc1)OC1CCN(CCCCCCCCCNCc2cc(F)cc(F)c2O)CC1` [Example 29, Biphenyl-2-yl-carbamic acid 1-[9-(2-hydroxy-3,5-difluoro-benzylamino)-nonyl]-piperidin-4-yl ester], the inhibition constant (Ki) in test [1] came to 0.816 nM; in test [2], 1.35 nM.
For the molecule `O=C(Nc1ccccc1-c1ccccc1)OC1CCN(CCCCCCCCCNCc2cccc(F)c2O)CC1` [Example 30, Biphenyl-2-yl-carbamic acid 1-[9-(2-hydroxy-3-fluoro-benzylamino)-nonyl]-piperidin-4-yl ester], the inhibition constant Ki in test [1] is 0.705 nM; in test [2] it was 1.31 nM.
The corresponding values for `O=C(Nc1ccccc1-c1ccccc1)OC1CCN(CCCCCCCCCNCc2cc(Cl)cc(Cl)c2O)CC1` [Example 31, Biphenyl-2-yl-carbamic acid 1-[9-(2-hydroxy-3,5-dichloro-benzylamino)-nonyl]-piperidin-4-yl ester] are 0.728 nM and 2.47 nM.
Take `O=C(Nc1ccccc1-c1ccccc1)OC1CCN(CCCCCCCCCNCc2cc(Cl)ccc2O)CC1` [Example 32, Biphenyl-2-yl-carbamic acid 1-[9-(5-chloro-2-hydroxy-benzylamino)-nonyl]-piperidin-4-yl ester]: the inhibitory constant (Ki) came out at 1.34 nM in test [1] and 3.04 nM in test [2].
As for `O=C(Nc1ccccc1-c1ccccc1)OC1CCN(CCCCCCCCCNCc2cc(F)c(Cl)cc2O)CC1` [Example 33, Biphenyl-2-yl-carbamic acid 1-[9-(2-hydroxy-4-chloro-5-fluoro-benzylamino)-nonyl]-piperidin-4-yl ester], the Ki in test [1] came out at 2.72 nM; in test [2], 6.04 nM.
As to `O=C(Nc1ccccc1-c1ccccc1)OC1CCN(CCCCCCCCCNCc2ccc(O)c(Cl)c2)CC1` [Example 34, Biphenyl-2-yl-carbamic acid 1-[9-(3-chloro-4-hydroxy-benzylamino)-nonyl]-piperidin-4-yl ester], the Ki in test [1] is 0.96 nM; in test [2], 0.787 nM.
As to `O=C(Nc1ccccc1-c1ccccc1)OC1CCN(CCCCCCCCCNCc2cc(F)ccc2O)CC1` [Example 35, Biphenyl-2-yl-carbamic acid 1-[9-(2-hydroxy-5-fluoro-benzylamino)-nonyl]-piperidin-4-yl ester], the figures for the inhibition constant Ki in test [1] and in test [2] were 1.64 nM and 1.38 nM, respectively.
For the molecule `O=C(Nc1ccccc1-c1ccccc1)OC1CCN(CCCCCCCCCNCc2ccc(F)c(O)c2)CC1` [Example 36, Biphenyl-2-yl-carbamic acid 1-[9-(3-hydroxy-4-fluoro-benzylamino)-nonyl]-piperidin-4-yl ester], the inhibition constant Ki in test [1] came to 2.24 nM; in test [2], 0.235 nM.
Regarding `O=C(Nc1ccccc1-c1ccccc1)OC1CCN(CCCCCCCCCNCc2ccc(Cl)c(O)c2Cl)CC1` [Example 37, Biphenyl-2-yl-carbamic acid 1-[9-(2,4-dichloro-3-hydroxy-benzylamino)-nonyl]-piperidin-4-yl ester], the values for the inhibition constant Ki in test [1] and in test [2] were 1.12 nM and 0.342 nM, respectively.
Take `O=C(Nc1ccccc1-c1ccccc1)OC1CCN(CCCCCCCCCNCc2ccc(O)c(F)c2)CC1` [Example 38, Biphenyl-2-yl-carbamic acid 1-[9-(4-hydroxy-3-fluoro-benzylamino)-nonyl]-piperidin-4-yl ester]: the results for the Ki in test [1] and in test [2] were 1.48 nM and 0.175 nM, respectively.
